The numbers were not newly measured in US20100151018A1, “SUSTAINED-RELEASE LEVETIRACETAM COMPOSITION AND PREPARATION PROCESS” (RD- Pharmagal, priority 2007, published 2010), which cites them from elsewhere.

Assay in data set [1]: not given
This is another data set of the same source.

In brackets after ≈: the same amount, converted by molar mass.

As to `NC(=O)N1c2ccccc2CC(=O)c2ccccc21` [oxcarbazepine], the solubility in water is 308 µg/mL (≈ 1220 µM).

`CC[C@@H](C(N)=O)N1CCCC1=O` [levetiracetam, S-enantiomer of a-ethyl-2-oxo-1-pyrrolidine acetamide]: the solubility in water entry is “approximately 104.0 g/100 ml”. Besides, the plasma half-life in data set [1] (in adults) is 7 h. Further, the bioavailability entry in data set [1] (oral administration of immediate-release tablets) is reported as “approximately 100%”.
